# Laboratory results published in the supplement of paper PMC10290057.
# Counter-ions that a name gives are not always drawn.
# Columns and labels:
# [1] = test system: HCT116; test: AC50 cell viability (CellTiter-Glo); higher = less potent; settings: 48 h
# [2] = test system: HCT116; test: efficacy (fitted maximal change in viability relative to DMSO control); higher = less cytotoxic (negative = loss of viability); settings: 48 h
# 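Throughout, for AC50 cell viability (CellTiter-Glo): HCT116 colorectal carcinoma cells screened at five concentrations per compound, luminescent viability scaled between DMSO wells and empty wells on each plate, curves fitted per compound.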
# 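Throughout, for efficacy (fitted maximal change in viability relative to DMSO control): Luminescence-based viability readout, five doses per compound, normalized against on-plate DMSO and empty-well controls, followed by dose-response curve fitting for every drug.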
Compound,AC50 cell viability [1] [µM],efficacy [2] [%]
CC(C)(O)/C=C\C(=O)[C@](C)(O)[C@H]1[C@H](O)C[C@]2(C)[C@@H]3CC=C4[C@@H](C=C(O)C(=O)C4(C)C)[C@]3(C)C(=O)C[C@@]12C [Cucurbitacin I],0.166,-77.1
CCc1nc(-c2cccc(C)c2)c(-c2ccnc(NC(=O)c3ccccc3)c2)s1 [TAK-715],26.3,-72.7
CC(C)c1ccc2c(c1)c(SC(C)(C)C)c(CC(C)(C)C(=O)[O-])n2Cc1ccc(Cl)cc1 [MK-886],20.9,-83.3
CC(O)(C#Cc1ccc2c(c1)N(c1nc(N)ncc1Cl)CC2)c1nccs1 (configuration not stated),16.6,-76.1
CC[C@H](CO)Nc1nc(NCc2ccccc2)c2ncn(C(C)C)c2n1 [Seliciclib],10.5,-84.6
NC(=O)c1cccc(-c2cc(Nc3ccc(OC(F)(F)F)cc3)ncn2)c1 [GNF-2],18.6,-97.5
CN1CCCN(CC1)C2=CC=C3C(=O)\C(=C/4SC5=C(C=CC=C5)N4C3=N2)C(=O)NCC6=CN=C(C)C=N6 [CX-5461],1.35,-49.8
Cc1nc(-c2cn3c(n2)-c2ccc(-c4cnn(C(C)(C)C(N)=O)c4)cc2OCC3)n(C(C)C)n1 [Taselisib (GDC-0032)],5.9,-77.1
COc1cc2nccc(Oc3ccc(NC(=O)Nc4ccc(F)cc4F)c(F)c3)c2cc1OC [KI-8751],2.09,-47.4
CCN1CCN(Cc2ccc(NC(=O)c3ccc(C)c(/C=C/c4cnc5[nH]ccc5c4OC)c3)cc2C(F)(F)F)CC1 [HG-6-64-1],2.95,-96.2
N[S+](=O)([O-])OC[C@@H]1C[C@@H](n2ccc3c(N[C@H]4CCc5ccccc54)ncnc32)C[C@@H]1O [MLN-4924],0.235,-65.7
COCC(=O)NC/C=C/c1ccc2ncnc(Nc3ccc(Oc4ccc(C)nc4)c(C)c3)c2c1,20.9,-64.8
NC/1=N/C(=O)C2=C([NH]C=C2CCC3=CC=C(C=C3)C(=O)N[C@@H](CCC(O)=O)C(O)=O)N1 [Pemetrexed],0.742,-40.7
Cc1cc(C)c(C/N=C(\O)c2cc(-c3ccc(N4CCN(C)CC4)nc3)cc3c2c(C)cn3C(C)C)c(O)n1 [GSK-503],23.5,-103
CN1CCN(Cc2ccc(Nc3ncc(Cl)/c(=N\c4ccccc4[S+](=O)([O-])N(C)C)[nH]3)cc2)CC1 [TP-0903],0.027,-65.8
CN(C)Cc1c(C(=O)NCCOc2ccc(C(=O)NO)cc2)oc2ccccc12 [Abexinostat],0.263,-91.9
O=C(/C=C/C#Cc1cccc(N[S+](=O)([O-])c2ccccc2)c1)NO [Oxamflatin],1.02,-99.5
Cc1ccc([S+](=O)([O-])Nc2cc(Cl)ccc2C(=O)Nc2nc(-c3ccccc3)cs2)cc1,2.63,-82.5
COc1cc2nc(-c3cc(F)ccc3O)nc(N[C@@H]3CNC[C@H]3C(C)(C)O)c2cc1OC,3.72,-87.7

Compound,AC50 cell viability [1] [µM],efficacy [2] [%]
CN1CCN(CC1)\C2=N\C3=C(NC4=C2C=CC=C4)C=CC(=C3)Cl [Clozapine],20.9,-99.6
C[C@@H](NCCCc1cccc(C(F)(F)F)c1)c1cccc2ccccc12 [Cinacalcet hydrochloride],16.6,-92.6
Oc1ccc([C@@H]2Oc3ccc(O)cc3[C@@H]3CCC[C@@H]32)cc1 [Erteberel],7.42,-73.8
CN1CCN(c2ccc3nc(-c4cc(C(C)(C)C)c(OCCCC(=O)NCCCN=[N+]=[N-])c(C(C)(C)C)c4)[nH]c3c2)CC1 [MIR96-IN-1],8.33,-98.9
COC(=O)Nc1cc(Nc2cc(NC3CC3)c3ncc(C#N)n3n2)c(Cl)c(N2CCN(C)CC2)c1 [BMS-595],0.525,-103
CCc1cc(C(N)=O)ccc1-n1nc(C(C)C)c2c(-n3cnc(-c4cnn(C)c4)c3)ccnc21 [TAS-116],1.05,-65.3
C/C=C/C[C@@H](C)C(=O)[C@H]1C(=O)N[C@@H](C(C)C)C(=O)N(C)CC(=O)N(C)[C@@H](CC(C)C)C(=O)N[C@@H](C(C)C)C(=O)N(C)[C@@H](CC(C)C)C(=O)N[C@@H](C)C(=O)N[C@H](C)C(=O)N(C)[C@@H](CC(C)C)C(=O)N(C)[C@@H](CC(C)C)C(=O)N(C)[C@@H](C(C)C)C(=O)N1C [Valspodar],8.11,-53.6
CCCCCCOC(=O)/N=C(/N)c1ccc(NCc2nc3cc(C(=O)N(CCC(=O)OCC)c4ccccn4)ccc3n2C)cc1 [BIBR-1048],18.6,-59.4
CCOC(=O)\C1=C(/C)N\C2=C(C1C3=CC=C(C=C3)C4=CC=CC=C4)\C(=O)CC(C)(C)C2 (configuration not stated) [ITD-1],18.6,-67.8
C[C@H]1C[C@@H](n2c(Nc3ccc(OC(F)(F)F)cc3)nc3cc(CCC(=O)O)ccc32)CC(C)(C)C1,20.9,-65
CCCC\1=C(/CNC(=O)C2=CC(=CC3=C2C=N[N]3C(C)C)C4=CC(=NC=C4)N5CCN(C)CC5)C(=O)NC(=C1)\C [GSK-343],23.5,-101
ClC/1=C(NCCN2CCOCC2)/C(=O)C3=C(C=CC=N3)C1=O [DA-3003-1],5.9,-90.7
C/C(=N\Nc1nnc2c(n1)[nH]c1c(C)cccc12)c1ccccn1 [VLX-600],0.742,-87.1
CN\1C(=O)/C(=C(\N=C1NC[C@@H](N)CC2=CC=CC=C2)C3=CC=NC=C3)C4=CC5=C(C=CC=C5)C=C4 [AMG-548],20.9,-101
Cn1cc(-c2cnn3c(N)c(Br)c([C@@H]4CCCNC4)nc23)cn1,13.2,-108
CNC(=O)c1cccc(-c2ccc3c(N4CCOC[C@@H]4C)nc(N4CCOC[C@@H]4C)nc3n2)c1 [Vistusertib],0.417,-31.3
CN(C)C1CCN(C(=O)c2ccc(NC(=O)Nc3ccc(-c4nc(N5CCOCC5)nc(N5CCOCC5)n4)cc3)cc2)CC1 [Gedatolisib],0.148,-69.6
O=C(NO)c1cnc(NC2(c3cccc(F)c3)CCCCC2)nc1 [ACY-775],16.6,-75.6
CN(Cc1ccc(/C=C/C(=O)NO)cc1)CC12CC3CC(CC(C3)C1)C2 [Martinostat],0.263,-89.7

Compound,AC50 cell viability [1] [µM],efficacy [2] [%]
Cn1cc(-c2cnn3c(N)c(Br)c(C4CCCNC4)nc23)cn1 (configuration not stated) [MK-8776],10.5,-113
Cc1cnc(Nc2ccc(OCCN3CCCC3)cc2)nc1Nc1cccc([S+](=O)([O-])NC(C)(C)C)c1,2.63,-109
CC[C@@]1(O)C(=O)OCC/2=C1/C=C3\N(CC4=CC5=CC(=CC=C5N=C34)O)C2=O [10-hydroxycamptothecin],0.105,-79.9
CCOC1=CC(=CC=C1C/2=N/[C@@](C)(C3=CC=C(Cl)C=C3)[C@](C)(N2C(=O)N4CCN(CC4)CC(=O)N5CCOCC5)C6=CC=C(Cl)C=C6)C(C)(C)C,9.17,-114
COc1ccc(-c2cc(C(O)C3CCCCN3)c3ccccc3n2)cc1 (configuration not stated),4.68,-90.9
COC[C@H]1OC(=O)C2=COC3=C2[C@@]1(C)\C4=C(\[C@@H]5CC[C@H](O)[C@@]5(C)C[C@H]4OC(C)=O)C3=O [17-hydroxy Wortmannin],20.9,-59.9
COc1cc(C(=O)O)ccc1NC(=O)[C@@H]1N[C@@H](CC(C)(C)C)[C@](C#N)(c2ccc(Cl)cc2F)[C@H]1c1cccc(Cl)c1F [Idasanutlin],1.66,-67.9
C[C@@H](NC1=CC=CC=C1C(O)=O)C/2=C/C(=C\N3C(=O)/C=C(\N=C23)N4CCOCC4)C [AZD-6482],10.5,-52.7
COc1cc2c(N3CCN(C(=O)Nc4ccc(OC(C)C)cc4)CC3)ncnc2cc1OCCCN1CCCCC1 [Tandutinib],18.6,-76
CC(C)n1c(/C=C/[C@H](O)C[C@H](O)CC(=O)O)c(-c2ccc(F)cc2)c2ccccc21 [Fluvastatin],9.34,-71.8
CCN1C(=O)\C(=C/C2=CN=C(NC3=CC=C(C=C3)N4CCN(C)CC4)N=C12)C5=C(Cl)C=C(C=C5)C6=CN=CS6 [FRAX-597],5.9,-59
C1CCC(C(CC2CCCCN2)C2CCCCC2)CC1 (configuration not stated) [Perhexiline],6.61,-92.2
[O-]C(=O)C1=C(C(=C(Cl)C(=C1Cl)Cl)Cl)C/2=C/3\C=C(I)/C(=O)/C(=C3OC4=C2C=C(I)C(=C4I)[O-])I [Rose Bengal disodium],16.6,-47
Cc1ccccc1C(=O)c1ccc(Nc2ccc(Br)cc2N)cc1Cl [EO-1428],20.9,-75.8
O=C(Nc1cccnn1)N1CCC(=Cc2cccc(Oc3ccc(C(F)(F)F)cn3)c2)CC1,14.8,-72.6
CCN(C)[S+](=O)([O-])Nc1ccc(F)c(C(=O)c2c[nH]c3ncc(-c4cnc(C5CC5)nc4)cc23)c1F [PLX-7904],16.6,-69.9
CC(C)C[C@@H](C(=O)N[C@H](C(=O)OC1CCCC1)c1ccccc1)[C@H](O)C(=O)NO [Tosedostat],4.17,-95.7
CC1(C)C(N(O)C(=O)Nc2ccc(Cl)cc2)N(c2ccc(Cl)cc2)C(=O)N1CC(=O)N/N=C/C=C/c1ccc([N+](=O)[O-])o1 (configuration not stated) [Eeyarestatin I],8.33,-89.8
